# Test results from PubChem BioAssay (NCI).
#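 These data come from cells grown in 96-well plates and exposed to compound for 48 hours at five concentrations. GI50 is the concentration that inhibits growth by half. TGI marks complete inhibition of growth.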
# Key:
# Assay in all cases: NCI anticancer screen, dose series, 48 h
# [1] = test system: COLO 205 colon
# [2] = test system: HL-60(TB) leukemia
# [3] = test system: HOP-62 NSCLC
# [4] = test system: SN12C renal
# [5] = test system: TK-10 renal
# [6] = test system: A498 renal
# [7] = test system: 786-0 renal
# [8] = test system: RXF 393 renal
# [9] = test system: SK-MEL-28 melanoma
# [10] = test system: SNB-19 CNS
# [11] = test system: CCRF-CEM leukemia
# [12] = test system: HCC-2998 colon
# [13] = test system: HCT-116 colon
# [14] = test system: SF-268 CNS
# [15] = test system: DU-145 prostate
# [16] = test system: OVCAR-4 ovarian
# [17] = test system: SF-539 CNS
# [18] = test system: SK-MEL-2 melanoma
# [19] = test system: SK-OV-3 ovarian
# [20] = test system: SK-MEL-5 melanoma
# [21] = test system: SNB-75 CNS
# [22] = test system: BT-549 breast
# [23] = test system: HS 578T breast
# [24] = test system: SW-620 colon
# [25] = test system: SF-295 CNS
# [26] = test system: SR leukemia
# [27] = test system: PC-3 prostate
# [28] = test system: RPMI-8226 leukemia
# [29] = test system: NCI-H23 lung
# [30] = test system: T-47D breast
# [31] = test system: NCI-H226 lung
# [32] = test system: NCI-H460 lung
# [33] = test system: HT29 colon
# [34] = test system: A549 NSCLC
# [35] = test system: M14 melanoma
# [36] = test system: NCI/ADR-RES ovarian
# [37] = test system: NCI-H522 lung
# [38] = test system: OVCAR-5 ovarian
# [39] = test system: ACHN renal
# [40] = test system: HOP-92 NSCLC
# [41] = test system: OVCAR-3 ovarian
# [42] = test system: KM12 colon
# [43] = test system: OVCAR-8 ovarian
# [44] = test system: MOLT-4 leukemia
# [45] = test system: U251 CNS
# [46] = test system: K-562 leukemia
# [47] = test system: CAKI-1 renal
# [48] = test system: UO-31 renal
# [49] = test system: MDA-MB-435
# [50] = test system: MDA-MB-231 breast
# [51] = test system: MALME-3M melanoma
# [52] = test system: LOX IMVI melanoma
# [53] = test system: IGROV1 ovarian
# [54] = test system: MCF7 breast
# [55] = test system: HCT-15 colon
# [56] = test system: UACC-62 melanoma
structure (smiles),measurement,setting,value
O=C(Nc1ccc(Cl)cc1)Nc1nccs1,GI50,[1],0.75 µM
same,TGI,[1],6.13 µM
same,GI50,[2],2.3 µM
same,TGI,[2],10.2 µM
same,GI50,[3],15.1 µM
same,TGI,[3],> 100 µM
same,GI50,[4],5.22 µM
same,TGI,[4],> 100 µM
same,GI50,[5],10.2 µM
same,TGI,[5],93.1 µM
same,GI50,[6],0.518 µM
same,TGI,[6],16.9 µM
same,GI50,[7],11.1 µM
same,TGI,[7],> 100 µM
same,GI50,[8],1.49 µM
same,TGI,[8],6.53 µM
same,GI50,[9],13.8 µM
same,TGI,[9],> 100 µM
same,GI50,[10],3.67 µM
same,TGI,[10],> 100 µM
same,GI50,[11],1.93 µM
same,TGI,[11],62 µM
same,GI50,[12],12.9 µM
same,TGI,[12],45.9 µM
same,GI50,[13],0.49 µM
same,TGI,[13],52.8 µM
same,GI50,[14],8.53 µM
same,TGI,[14],63.1 µM
same,GI50,[15],3.82 µM
same,TGI,[15],71.9 µM
same,GI50,[16],8.38 µM
same,TGI,[16],> 100 µM
same,GI50,[17],1.81 µM
same,TGI,[17],6.42 µM
same,GI50,[18],0.784 µM
same,TGI,[18],43.3 µM
same,GI50,[19],5.04 µM
same,TGI,[19],> 100 µM
same,GI50,[20],0.514 µM
same,TGI,[20],15.3 µM
same,GI50,[21],2.02 µM
same,TGI,[21],> 100 µM
same,GI50,[22],8.68 µM
same,TGI,[22],57.9 µM
same,GI50,[23],1.33 µM
same,TGI,[23],34.1 µM
same,GI50,[24],0.4 µM
same,TGI,[24],> 100 µM
same,GI50,[25],2.73 µM
same,TGI,[25],34.7 µM
same,GI50,[26],0.45 µM
same,TGI,[26],62.6 µM
same,GI50,[27],2.79 µM
same,TGI,[27],40.3 µM
same,GI50,[28],2.63 µM
same,TGI,[28],16.6 µM
same,GI50,[29],11.5 µM
same,TGI,[29],> 100 µM
same,GI50,[30],2.38 µM
same,TGI,[30],> 100 µM
same,GI50,[31],4.46 µM
same,TGI,[31],57 µM
same,GI50,[32],0.487 µM
same,TGI,[32],57.3 µM
same,GI50,[33],0.511 µM
same,TGI,[33],27.1 µM
same,GI50,[34],0.775 µM
same,TGI,[34],> 100 µM
same,GI50,[35],0.543 µM
same,TGI,[35],27.5 µM
same,GI50,[36],0.575 µM
same,TGI,[36],30.1 µM
same,GI50,[37],1.92 µM
same,TGI,[37],14.4 µM
same,GI50,[38],12.8 µM
same,TGI,[38],> 100 µM
same,GI50,[39],2.25 µM
same,TGI,[39],43 µM
same,GI50,[40],2.14 µM
same,TGI,[40],34 µM
same,GI50,[41],1.95 µM
same,TGI,[41],7.85 µM
same,GI50,[42],0.491 µM
same,TGI,[42],19.4 µM
same,GI50,[43],3.39 µM
same,TGI,[43],> 100 µM
same,GI50,[44],4.8 µM
same,TGI,[44],84.2 µM
same,GI50,[45],3.44 µM
same,TGI,[45],26.9 µM
same,GI50,[46],0.5 µM
same,TGI,[46],> 100 µM
same,GI50,[47],2.36 µM
same,TGI,[47],54.8 µM
same,GI50,[48],4.29 µM
same,TGI,[48],> 100 µM
same,GI50,[49],0.207 µM
same,TGI,[49],0.585 µM
same,GI50,[50],3.18 µM
same,TGI,[50],41.5 µM
same,GI50,[51],3.37 µM
same,TGI,[51],54.1 µM
same,GI50,[52],0.786 µM
same,TGI,[52],> 100 µM
same,GI50,[53],1.26 µM
same,TGI,[53],> 100 µM
same,GI50,[54],0.439 µM
same,TGI,[54],> 100 µM
same,GI50,[55],0.46 µM
same,TGI,[55],> 100 µM
same,GI50,[56],0.756 µM
same,TGI,[56],57.9 µM
